{"source": "paper PMC12559008", "about": "(Nature cancer, 2025)", "key": {"in vivo": {"assay": "in vivo", "settings": "B6129SF1/J, mouse, iv"}, "[1]": {"settings": "B6129SF1/J, mouse, in vivo, iv, 24 h"}, "[2]": {"assay": "pKa measurement by pH titration", "format": "physicochemical", "settings": "pH probe, titration of SM-AZO-PTX and SM-AZE-PTX"}, "[3]": {"assay": "MTD dose stated for CPT comparators", "settings": "mouse, in vivo, intravenous"}, "[4]": {"settings": "mouse, in vivo"}}}
{"molecule": "Nc1ccn([C@@H]2O[C@H](CO)[C@@H](O)C2(F)F)c(=O)n1", "note": "[GEM, gemcitabine]", "values": [{"measurement": "half-life", "setting": "in vivo", "value": "23.4 ± 3.6", "unit": "min"}, {"measurement": "Injected GEM dose (%), Tumor", "setting": "[1]", "value": 0.21, "unit": "%"}]}
{"molecule": "C1CCCNCC1", "note": "[AZE, Azepane]", "values": [{"measurement": "pKa", "setting": "[2]", "value": "~6.98"}]}
{"molecule": "C1CCCNCCC1", "note": "[AZO, Azocane]", "values": [{"measurement": "pKa", "setting": "[2]", "value": 5.75}]}
{"molecule": "CC[C@@]1(O)C(=O)OCc2c1cc1n(c2=O)Cc2cc3ccccc3nc2-1", "note": "[Free CPT, Camptothecin]", "values": [{"measurement": "MTD", "setting": "[3]", "value": 5, "unit": "mg/kg"}]}
{"molecule": "Taxol", "values": [{"measurement": "myelosuppression and neuropathy (sternums and dorsal root ganglia), in words", "setting": "[4]", "value": "severely damaged sternums and dorsal root ganglia tissues"}]}
